# Source: US8629168B2, “Benzoxazoles and oxazolopyridines being useful as janus kinases inhibitors” (priority 2006, dated 2014)
# Columns and labels:
# GST-JAK2 = biological target: T1, GST-JAK2 (Homo sapiens, UniProt O60674); assay: JAK2 kinase assay of the general description (alternative method, flash plate); format: biochemical; details: 1.0 μM ATP, read-out: IC50 with test in general description (named “alternative method to that given in the examples”) (“flash plate”)
# T1 construct: the amino acid domain ASP751-VAL1129 of the JAK2 protein
# Procedure: Baculovirus including the amino acid domain ASP751-VAL1129 of the JAK2 protein is obtainable by ProQinase, Freiburg, Germany. The virus is scaled up as following: Virus containing media is collected from the transfected cell culture and used for infection to increase its titer. Virus containing media obtained after two rounds of infection is used for large-scale protein expression. For large-scale protein expression 100 cm^2 round tissue culture plates are seeded with 5×10^7 cells/plate and infected with 1 mL of virus-containing media (approx. 5 MOIs). After 3 days the cells are scraped off the plate and centrifuged at 500 rpm for 5 min. Cell pellets from 10-20, 100 cm^2 plates, are re-suspended in 50 mL of ice-cold lysis buffer (25 mMTris-HCl, pH7.5, 2 mMEDTA, 1% NP-40, 1 mM DTT, 1 mMP MSF). The cells are stirred on ice for 15 min and then centrifuged at 5000 rpms for 20 min. The protein is purified by loading the centrifuged cell lysate onto a 2 mL glutathione-sepharose column and washed three times with 10 mL of 25 mM Tris-HCl, pH 7.5, 2 mM EDTA, 1 mM DTT, 200 mM NaCl. The GST-tagged proteins are then eluted by 10 applications (1 mL each) of 25 mM Tris-HCl, pH 7.5, 10 mM reduced-glutathione, 100 mM NaCl, 1 mM DTT, 10% Glycerol and stored at −70° C.
# Cancer Cell; 5: 231-239]. The test compound is dissolved in DMSO (10 mM) and stored at −20° C. Serial dilutions are freshly made in DMSO and are […] concentrated than test solutions (“pre-dilution plates”). They are further diluted with pure water to yield “master plates” containing 3 times concentrated test solutions in 3% DMSO. The final volume of the assay is 30 μL containing 10 μL of test solution (1% DMSO), 10 μL assay mix including the assay components described by Garcia-Echeverria (2004) and in the following section as well as 10 μL enzyme. The pipetting steps can be programmed to be performed either on the MultiPROBE Iix, MultiPROBE IILx or HamiltonSTAR robots in the 96 well format.
# The protein kinase assays are carried as described in details by Garcia-Echeverria (see above). The assay for JAK2 is carried out in 96-well plates at ambient temperature for 10 min (filter-biding method) or 30 min (flash plates) in a finial volume of 30 μL including the following components: 300 ng of GST-JAK2, 20 mM Tris-HCl, pH 7.5, 1.0 mM MnCl2, 10 mM MgCl2, 1 mM DTT, 3 μg/mL poly(Glu, Tyr) 4:1, 1% DMSO and 1.0 μM ATP (γ-[^33P]-ATP 0.1 μCi); The assays are terminated by the addition of 20 μl of 125 mM EDTA. The capturing of the phosphorylated peptides by the filter-binding method is performed as following: 40 μL of the reaction mixture are transferred onto Immobilon-PVDF membranes previously soaked for 5 min with methanol, rinsed with water, then soaked for 5 min with 0.5% H3PO4 and mounted on vacuum manifold with disconnected vacuum source. After spotting all samples, vacuum is connected and each well rinsed with 200 μl 0.5% H3PO4. Free membranes are removed and washed 4× on a shaker with 1.0% H3PO4, once with ethanol. Membranes are counted after drying at ambient temperature, mounting in Packard TopCount 96-well frame, and addition of 10 μl/well of Microscint. The plates are eventually sealed and counted in a microplate scintillation counter (TopCount NXT, TopCount NXT HTS, PerkinElmer, Brussels, Belgium).
# The assays for the flash plate method is carried out in a total volume of 30 μL at RT in conventional 96-well flash plates. The reaction is stopped after 30 min by the addition of 20 μL of 125 mM EDTA The assay plates are then washed three times with PBS and dried at room temperature. The plates are sealed and counted in a microplate scintillation counter (TopCount NXT, TopCount NXT HTS). IC50 values are calculated by linear regression analysis of the percentage inhibition of the compound either in duplicate, at four concentrations (usually 0.01, 0.1, 1 and 10 μM) or as 8 single point IC50 starting at 10 μM following by 1:3 dilutions.
# GST-JAK2(808-1132) = biological target: T2, GST-JAK2(808-1132) (Homo sapiens, UniProt O60674); assay: EPK JAK/TYK-kinase family profiling assay (Caliper mobility shift), JAK2; format: biochemical; details: Caliper mobility shift assay of Example 187, 20 μM ATP, read-out: IC50 with Test in present Example
# T2 construct: GST-JAK2(808-1132) is purchased from Invitrogen; purchased Invitrogen (Carlsbad, USA) #4288
# Procedure, shortened: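 Caliper mobility-shift assay with the GST-tagged kinase domain and a fluorescently labeled peptide substrate plus ATP, run 60 min at 30° C and then stopped with EDTA buffer. Turnover was taken as the substrate/product ratio. Compounds were tested at eight final concentrations from 10 to 0.003 μM.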
# T2 sequence (O60674 808-1132): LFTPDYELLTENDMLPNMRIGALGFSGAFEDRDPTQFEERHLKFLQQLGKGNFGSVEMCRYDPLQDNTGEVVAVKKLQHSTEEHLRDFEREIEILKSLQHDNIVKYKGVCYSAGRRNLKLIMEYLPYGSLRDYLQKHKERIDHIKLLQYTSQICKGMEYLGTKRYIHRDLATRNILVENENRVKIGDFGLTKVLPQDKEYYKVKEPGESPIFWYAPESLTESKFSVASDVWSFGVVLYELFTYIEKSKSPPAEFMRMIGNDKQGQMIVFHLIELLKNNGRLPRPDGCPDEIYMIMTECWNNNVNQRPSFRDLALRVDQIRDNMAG
# T1 sequence (O60674 751-1129): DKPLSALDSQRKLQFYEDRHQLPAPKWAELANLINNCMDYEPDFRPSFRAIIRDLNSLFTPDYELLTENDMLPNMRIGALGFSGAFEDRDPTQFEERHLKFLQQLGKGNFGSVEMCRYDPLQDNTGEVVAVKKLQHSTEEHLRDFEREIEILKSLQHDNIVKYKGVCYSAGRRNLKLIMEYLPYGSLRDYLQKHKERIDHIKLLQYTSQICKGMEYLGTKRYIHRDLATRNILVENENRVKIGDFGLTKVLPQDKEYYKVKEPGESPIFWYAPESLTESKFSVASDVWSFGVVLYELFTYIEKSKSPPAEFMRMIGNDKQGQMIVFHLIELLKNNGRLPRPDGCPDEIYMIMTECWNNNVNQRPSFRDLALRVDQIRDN
Compound,melting point,IC50 (GST-JAK2),IC50 (GST-JAK2(808-1132))
"COc1cc(Nc2nc3cccc(-c4cccc(CNC(C)=O)c4)c3o2)cc(OC)c1OC [Example 33, N-{3-[2-(3,4,5-Trimethoxy-phenylamino)-benzooxazol-7-yl]-benzyl}-acetamide]",203 to 204 °C,0.29 µM,
"COc1ccccc1-c1cccc2nc(Nc3cc(OC)c(OC)c(OC)c3)oc12 [Example 5, [7-(2-Methoxy-phenyl)-benzooxazol-2-yl]-(3,4,5-trimethoxy-phenyl)-amine]",185 to 187 °C,0.15 µM,
"COc1cc(Nc2nc3cccc(-c4ccc(NS(C)(=O)=O)cc4)c3o2)cc(OC)c1OC (hydrate or solvate) [Example 26, N-{4-[2-(3,4,5-Trimethoxy-phenylamino)-benzooxazol-7-yl]-phenyl}-methanesulfonamide]",222 to 225 °C,,
"Nc1cccc(-c2cccc3nc(Nc4ccc(N5CCOCC5)nc4)oc23)c1 [Example 42, [7-(3-Amino-phenyl)-benzooxazol-2-yl]-(6-morpholin-4-yl-pyridin-3-yl)-amine]",235 to 237 °C,1.2 µM,
"COc1cc(Nc2nc3cccc(-c4cccc(NC(C)=O)c4)c3o2)cc(OC)c1OC [Example 28, N-{3-[2-(3,4,5-Trimethoxy-phenylamino)-benzooxazol-7-yl]-phenyl}-acetamide]",170 to 172 °C,0.31 µM,
"COc1cc(Nc2nc3cccc(-c4cncc5ccccc45)c3o2)cc(OC)c1OC [Example 8, (7-Isoquinolin-4-yl-benzooxazol-2-yl)-(3,4,5-trimethoxy-phenyl)-amine]",201 to 203 °C,0.368 µM,
"COc1cc(Nc2nc3cccc(-c4ccc(S(=O)(=O)N5CCOCC5)cc4)c3o2)cc(OC)c1OC [Example 23, {7-[4-(Morpholine-4-sulfonyl)-phenyl]-benzooxazol-2-yl}-(3,4,5-trimethoxy-phenyl)-amine]",201 to 203 °C,0.19 µM,
"COc1cc(Nc2nc3cccc(-c4ccc(CNS(C)(=O)=O)cc4)c3o2)cc(OC)c1OC [Example 31, N-{4-[2-(3,4,5-Trimethoxy-phenylamino)-benzooxazol-7-yl]-benzyl}-methanesulfonamide]",,0.0605 µM,0.0162 µM
"COc1cc(Nc2nc3cccc(-c4ccc(C(=O)N5CCN(C)CC5)cc4)c3o2)cc(OC)c1OC [Example 142, (4-Methyl-piperazin-1-yl)-{4-[2-(3,4,5-trimethoxy-phenylamino)-benzooxazol-7-yl]-phenyl}-methanone]",,0.7 µM,0.0585 µM
"CN(C)CCNC(=O)c1ccc(Nc2nc3cccc(-c4ccc(S(N)(=O)=O)cc4)c3o2)cc1 [Example 57, N-(2-Dimethylamino-ethyl)-4-[7-(4-sulfamoyl-phenyl)-benzooxazol-2-ylamino]-benzamide]",,0.15 µM,0.037 µM
"COc1cc(Nc2nc3cccc(-c4ccc(CNC(C)=O)cc4)c3o2)cc(OC)c1OC (hydrate or solvate) [Example 30, N-{4-[2-(3,4,5-Trimethoxy-phenylamino)-benzooxazol-7-yl]-benzyl}-acetamide]",237 to 239 °C,,
"CNC(=O)c1cc(-c2cccc3nc(Nc4cc(OC)c(OC)c(OC)c4)oc23)cs1 (hydrate or solvate) [Example 34, 4-[2-(3,4,5-Trimethoxy-phenylamino)-benzooxazol-7-yl]-thiophene-2-carboxylic acid methylamide]",260 to 262 °C,,
"COCCNC(=O)c1ccc(Nc2nc3cccc(-c4ccc(S(N)(=O)=O)cc4)c3o2)cc1 [Example 56, N-(2-Methoxy-ethyl)-4-[7-(4-sulfamoyl-phenyl)-benzooxazol-2-ylamino]-benzamide]",,0.11 µM,0.051 µM
"COc1cc(Nc2nc3cccc(-c4ccc(NC(C)=O)cc4)c3o2)cc(OC)c1OC (hydrate or solvate) [Example 27, N-{4-[2-(3,4,5-Trimethoxy-phenylamino)-benzooxazol-7-yl]-phenyl}-acetamide]",265 to 270 °C,,
"COc1cc(Nc2nc3cccc(-c4ccccc4)c3o2)cc(OC)c1OC [Example 2, (7-Phenyl-benzooxazol-2-yl)-(3,4,5-trimethoxy-phenyl)-amine]",182 to 185 °C,,

# The remaining lines, values ahead:
melting point,IC50 (GST-JAK2),IC50 (GST-JAK2(808-1132)),Compound
185 to 189 °C,1 µM,,"COc1cc(Nc2nc3cccc(-c4ccn[nH]4)c3o2)cc(OC)c1OC [Example 20, [7-(2H-Pyrazol-3-yl)-benzooxazol-2-yl]-(3,4,5-trimethoxy-phenyl)-amine]"
120 to 126 °C,0.24 µM,,"COc1cc(Nc2nc3ccnc(-c4cccc(N)c4)c3o2)cc(OC)c1OC [Example 37, [4-(3-Amino-phenyl)-oxazolo[5,4-c]pyridin-2-yl]-(3,4,5-trimethoxy-phenyl)-amine]"
222 to 223 °C,0.17 µM,,"COc1cc(Nc2nc3cccc(-c4ccc(C#N)cc4)c3o2)cc(OC)c1OC [Example 19, 4-[2-(3,4,5-Trimethoxy-phenylamino)-benzooxazol-7-yl]-benzonitrile]"
148 to 151 °C,,,"COc1cc(Nc2nc3ccnc(-c4ccc(N)cc4)c3o2)cc(OC)c1OC (hydrate or solvate) [Example 36, [4-(4-Amino-phenyl)-oxazolo[5,4-c]pyridin-2-yl]-(3,4,5-trimethoxy-phenyl)-amine]"
179 to 182 °C,,,"COc1ccc(-c2cccc3nc(Nc4cc(OC)c(OC)c(OC)c4)oc23)cc1 [Example 7, [7-(4-Methoxy-phenyl)-benzooxazol-2-yl]-(3,4,5-trimethoxy-phenyl)-amine]"
,0.23 µM,0.016 µM,"COc1cc(Nc2nc3ccnc(-c4ccc(CNS(C)(=O)=O)cc4)c3o2)cc(OC)c1OC [Example 62, N-{4-[2-(3,4,5-Trimethoxy-phenylamino)-oxazolo[5,4-c]pyridin-4-yl]-benzyl}-methanesulfonamide]"
,0.25 µM,0.066 µM,"COc1cc(Nc2nc3cccc(-c4ccc(CN)cc4)c3o2)cc(OC)c1OC [Example 29, [7-(4-Aminomethyl-phenyl)-benzooxazol-2-yl]-(3,4,5-trimethoxy-phenyl)-amine]"
208 to 211 °C,,,"COc1cc(Nc2nc3cccc(-c4ccc(CN)cc4)c3o2)cc(OC)c1OC (hydrate or solvate) [Example 29, [7-(4-Aminomethyl-phenyl)-benzooxazol-2-yl]-(3,4,5-trimethoxy-phenyl)-amine]"
150 to 156 °C,,,"COc1cc(Nc2nc3cccc(-c4ccc5[nH]cnc5c4)c3o2)cc(OC)c1OC (hydrate or solvate) [Example 35, [7-(1H-Benzoimidazol-5-yl)-benzooxazol-2-yl]-(3,4,5-trimethoxy-phenyl)-amine]"
